The nature of series [1]: Peripheral blood counts (Hemavet) after 12 doses in xenograft mice. It counts as in vivo. The note with it: end of four-week treatment (12 doses). As to the method:
Peripheral blood collected after 12 doses of IODVA1 in tumor-bearing breast cancer xenograft animals were analyzed for blood counts with a Hemavet. No statistically significant changes in blood counts were detected between vehicle control and IODVA1 treated animals (N=4, mean, SEM).
At the end of the four-week treatment when mice were euthanized, peripheral blood was collected via cardiac puncture to check the effect of IODVA1 on white and red blood cells of treated mice for any sign of toxicity.
For xenograft studies, 1×10^6 MDA-MB-231 cells were suspended in PBS and injected into each inguinal mammary fat pad of nulliparous, 10-week old female athymic nude mice. Tumors were measured weekly with digital calipers and volume was calculated as [(π/6))×L×W^2] (Euhus et al., 1986; Tomayko and Reynolds, 1989). Treatment began eight weeks post-injection, when tumors reached 200 mm^3. Mice received intraperitoneal injections of 250 uL of diluent (5% DMSO in PBS) or […] of compound IODVA1 three times weekly for 4 weeks, for an average drug dose of 3.5 mg/kg. At necropsy, the mice were weighed and the tumors were excised, measured, weighed, fixed in 4% paraformaldehyde, and embedded in paraffin. Peripheral blood was collected by cardiac puncture and analyzed with a Hemavet (Drew Scientific, Miami Lakes, Fla., USA) for complete blood counts. […]

The test system of series [2] is pVav3 in MDA-MB-231 xenograft tumors. Kind of series: Immunohistochemistry of pVav3 in xenograft tumors. Also on record: species or system mice. The note with it: mouse, in vivo. As to the method: FIG. 16: IODVA1 decreases levels of pVav3 in in vitro and in vivo models of triple negative breast cancer. (A) Immunoblot and quantification of Vav3 protein in lysates of MDA-MB-231 triple negative breast cancer cells stably expressing scrambled or Vav3-targeting shRNAs. Viability of the MDA-MB-231 cells stably expressing shVav3 in the presence of IODVA1 (0-1 μM). Cells were grown in the presence of IODVA1 and counted by trypan blue exclusion at the indicated time points. (B) MDA-MB-231 cells were incubated with IODVA1 (3 μM) for 15 min and the levels of phosphorylated Vav3 (pY173) were assessed by immunoblotting. (C) Immunohistochemical staining of phosphorylated Vav3 in tissue derived from MDA-MB-231 xenografts treated with vehicle control or IODVA1.
To test if IODVA1 inhibits Vav3 in vivo, we took advantage of the MDA-MB-231 xenograft tumors we generated (FIG. 8A) and stained them by immunohistochemistry for pVav3.
Embedded tissues were cut into 4 μm sections then immunohistochemically stained using the Mouse on Mouse kit (MoM kit, Vector Laboratories). Tissue sections were subjected to sodium citrate antigen retrieval, pretreated with 0.3% hydrogen peroxide, blocked according to kit directions, and incubated with an antibody to phosphorylated Vav3 (1:200 dilution, Abcam) and HRP-conjugated anti-rabbit secondary (Vector Laboratories). […]

Series [3] concerns MCF7, T47D, and MDA-MB-231 cells. Kind of series: Colony formation in soft agar, breast cancer cells. The note with it: 1 and 3 μM. It counts as cell-based. As to the method: FIG. 4. IODVA1 inhibits proliferation of cancer model cells. (A) IODVA1 is a potent cell proliferation inhibitor. MCF10A, MCF7, MDA-MB-231, and T47D cells were grown in the presence of the indicated IODVA1 concentrations and counted for 4 or up to 7 days. Each dot and bar is the mean±stdev respectively, of 3 independent experiments, with 2 technical replicates in each experiment. (B) Number of colonies made by MCF7, T47D, and MDA-MB-231 cells at the indicated IODVA1 concentrations. Results shown are mean±stdev of 2 independent experiments with 4 technical replicates each. (C) IODVA1 deactivates Ras at late incubation times. […] Quantification summary of 2 independent experiments is presented in the graph. n.s.—not significant, *-p<0.05, **-p<0.01, ****-p<0.0001. (D) IODVA1 inhibits proliferation of ST8814 cells. ST8814 cells were grown in the presence of the indicated IODVA1 concentrations and counted daily for 4 days. Each dot and bar is the mean and standard deviation respectively, of 3 independent experiments.
Applicants tested IODVA1's ability to inhibit the proliferation of cells harboring activated Ras and therefore its ability to recapitulate the compound obtained from the NCI. […] Cells were grown in growth media containing IODVA1 at concentrations between 0.1 and 10 μM or vehicle control and cell number was counted using the trypan blue exclusion method. […]

With `OC1(c2ccccn2)N=C(Nc2nc3ccccc3[nH]2)N=C1c1ccccn1` (stereo not drawn) [IODVA1, (Z)-2-((1H-benzo[d]imidazol-2-yl)imino)-4,5-di(pyridin-2-yl)-2,5-dihydro-1H-imidazol-5-ol], the “WBC, neutrophils, lymphocytes, monocytes, RBC, hemoglobin, hematocrit, MCV, MCH, MCHV, RDW, platelets, mean platelet volume versus vehicle” value in series [1] is listed as “no significant difference”. Besides, the “pVav3 staining of tumor sections versus vehicle control” value in series [2] was “significant decrease”. In addition, in series [3], the “number of colonies in soft agar” value is listed as “significantly decreases”.

(Values after patent publication US11564913B2, “Compositions and methods for treating cancer” (Children's Hospital Medical Center, priority 2019, dated 2023).)
